Source: US20130165641A1, “6,11-BRIDGED BIARYL MACROLIDES” (Enanta Pharmaceuticals, Inc., priority 2007, published 2013)
In brackets after ≈: the same amount, converted by molar mass. Blank lines part the entries; values can stand above or below the compound they belong to.

Experiments:
[1] = Tissue accumulation of Compound 1 at the site of infection (infected skin tissue); conditions: mouse, po, 50 mg/kg
H. influenzae = assay: MIC by micro-dilution method, H. influenzae isolates; format: cell-based, Haemophilus influenzae; conditions: examples of U.S. Pat. No. 6,878,691 for reference; for MIC H. influenzae 33929: H. influenzae isolate 33929; for MIC H. influenzae 49247: H. influenzae isolate 49247
Method: Susceptibility tests can be used to quantitatively measure the in vitro activity of an antimicrobial agent against a given bacterial isolate. Compounds are tested for in vitro antibacterial activity by a micro-dilution method. Minimal Inhibitory Concentration (MIC) is determined in 96 well microtiter plates utilizing the appropriate broth medium for the observed bacterial isolates. […] The diluted compounds (2 μl/well) are then transferred into sterile, uninoculated medium (0.2 mL) by use of a 96 fixed tip-pipetting station. The inoculum for each bacterial strain is standardized to approximately 5×10^5 CFU/mL by optical comparison to a 0.5 McFarland turbidity standard. The plates are inoculated with 10 μl/well of adjusted bacterial inoculum. The 96 well plates are covered and incubated at 35+/−2° C. for 24 hours in ambient air environment. Following incubation, plate wells are visually examined by Optical Density measurement for the presence of growth (turbidity). The lowest concentration of an antimicrobial agent at which no visible growth occurs is defined as the MIC.
All in vitro testing follows the guidelines described in the Approved Standards M7-A7 protocol, published by the Clinical Laboratory Standards Institute (CLSI).

MRSA = assay: MIC by micro-dilution method, MRSA isolates; format: cell-based, Staphylococcus aureus; conditions: MRSA isolate 33591; examples of U.S. Pat. No. 6,878,691 for reference
Method in brief: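 CLSI M7-A7 broth microdilution with inoculum about 5×10^5 CFU/mL, in broth suited to each isolate. Plates incubated 24 h at 35±2 °C in ambient air. MIC is the lowest concentration without visible growth, judged by optical density.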

[2] = Rat PK of amino acid prodrug after IV/PO administration; format: in vivo; conditions: plasma, 10 mg/kg IV, prodrug itself, read-out: AUC0-∝
[3] = Animal model of infection of Compound 4: MPT, ED50; format: in vivo, mice; conditions: Mus musculus, MPT (mouse protection test model)
[4] = Animal model of infection of Compound 4: RLI, 2Log Red; format: in vivo, rats; conditions: RLI (rat lung infection model), ED50

SMILES: CCC(=O)/N=C1\[C@H](C)C[C@@]2(C)OC/C(=N/OCc3ccc(-c4nc(N)cs4)cn3)CO[C@H]([C@H]1C)[C@](C)(O)[C@@H](CC)OC(=O)[C@@](C)(F)C(=O)[C@H](C)[C@H]2O[C@@H]1O[C@H](C)C[C@H](N(C)C)[C@H]1O [Compound 1]
AUC(0-inf) ([1]; infected skin abscess): 617000 µg·h/mL
AUC(0-t) ([1]; infected skin abscess): 257000 µg·h/mL
Cmax ([1]; infected skin abscess): 9030 µg/mL
AUC(0-inf) ([1]; plasma): 24500 µg·h/mL
AUC(0-t) ([1]; plasma): 24400 µg·h/mL
Cmax ([1]; plasma): 5120 µg/mL
AUC(0-inf) ([1]; uninfected skin): 66600 µg·h/mL
AUC(0-t) ([1]; uninfected skin): 54600 µg·h/mL
Cmax ([1]; uninfected skin): 3800 µg/mL

MIC H. influenzae 33929 (H. influenzae): 4 µg/mL (≈ 4.57 µM)
MIC H. influenzae 49247 (H. influenzae): 4 µg/mL (≈ 4.57 µM)
MIC MRSA 33591 (MRSA): 32 µg/mL (≈ 36.5 µM)
SMILES: CC[C@H]1OC(=O)[C@@](C)(F)C(=O)[C@H](C)[C@@H](O[C@@H]2O[C@H](C)C[C@H](N(C)C)[C@H]2O)[C@@]2(C)C[C@@H](C)C(=NC(C)=O)[C@H](C)[C@@H](OC/C(=N\OCc3ccc(-c4csnn4)cc3)CO2)[C@]1(C)O [Compound 219, reference compound]

MIC H. influenzae 33929 (H. influenzae): 4 µg/mL (≈ 4.61 µM)
MIC H. influenzae 49247 (H. influenzae): 4 µg/mL (≈ 4.61 µM)
MIC MRSA 33591 (MRSA): 32 µg/mL (≈ 36.9 µM)
SMILES: CC[C@H]1OC(=O)[C@H](C)C(=O)[C@H](C)[C@@H](O[C@@H]2O[C@H](C)C[C@H](N(C)C)[C@H]2O)[C@@]2(C)C[C@@H](C)C(=NC(C)=O)[C@H](C)[C@@H](OC/C(=N\OCc3ccc(-c4cccc(N)n4)nc3)CO2)[C@]1(C)O [Compound 227, reference compound]

MIC H. influenzae 33929 (H. influenzae): 4 µg/mL (≈ 4.58 µM)
MIC H. influenzae 49247 (H. influenzae): 4 µg/mL (≈ 4.58 µM)
MIC MRSA 33591 (MRSA): >64 µg/mL
SMILES: CC[C@H]1OC(=O)[C@H](C)C(=O)[C@H](C)[C@@H](O[C@@H]2O[C@H](C)C[C@H](N(C)C)[C@H]2O)[C@@]2(C)C[C@@H](C)C(=NC(C)=O)[C@H](C)[C@@H](OC/C(=N\OCc3ccc(-c4nnc(N)s4)nc3)CO2)[C@]1(C)O [Compound 234, reference compound]

MIC H. influenzae 33929 (H. influenzae): 8 µg/mL (≈ 9.31 µM)
MIC H. influenzae 49247 (H. influenzae): 8 µg/mL (≈ 9.31 µM)
MIC MRSA 33591 (MRSA): >64 µg/mL
SMILES: CC[C@H]1OC(=O)[C@H](C)C(=O)[C@H](C)[C@@H](O[C@@H]2O[C@H](C)C[C@H](N(C)C)[C@H]2O)[C@@]2(C)C[C@@H](C)C(=NC(C)=O)[C@H](C)[C@@H](OC/C(=N\OCc3cnc(-n4cccn4)c(F)c3)CO2)[C@]1(C)O [Compound 259, reference compound]

AUC [2]: 0.21 µg·h/mL
SMILES: CCC(=O)/N=C1\[C@H](C)C[C@@]2(C)OC/C(=N/OCc3ccc(-c4nc(NC(=O)[C@@H](N)CC(C)C)cs4)cn3)CO[C@H]([C@H]1C)[C@](C)(O)[C@@H](CC)OC(=O)[C@@](C)(F)C(=O)[C@H](C)[C@H]2O[C@@H]1O[C@H](C)C[C@H](N(C)C)[C@H]1O [Compounds 6]

SMILES: CC[C@H]1OC(=O)[C@H](C)C(=O)[C@H](C)[C@@H](O[C@@H]2O[C@H](C)C[C@H](N(C)C)[C@H]2O)[C@](C)(OC)C[C@@H](C)C(=O)[C@H](C)[C@H]2N(CCCCn3cnc(-c4cccnc4)c3)C(=O)O[C@]12C [Telithromycin, telithromycin]
ED50 ([3]; S. aureus Smith): 11 mg/kg
ED50 ([3]; S. pneumoniae 7701): 10 mg/kg
2Log Red ([4]; H. influenzae 1435): 49 mg/kg
2Log Red ([4]; H. influenzae 3643): 78 mg/kg
2Log Red ([4]; H. influenzae S1280): 56 mg/kg
